# Source: patent US20080039431A1, “Method of improving plant growth by reducing viral infections” (priority 2006, published 2008)
# Values joined by “and” are separate entries in the source; they are usually repeats but may differ in a detail not shown here. Identical values can stand only once.
# Key:
# [1] = test system: tomato spotted wilt virus (TSWV); experiment: Replicated peanut field trials, in-furrow treatment at planting (Examples 1-3); format: in vivo, peanut (Arachis hypogaea L.); details: for TSWV Incidence (number of symptomatic feet of row per 60 foot plot): 8 replicate plots
# Method: Cultivation—Three replicated field trials were conducted at the Bayer CropScience research farm in Tifton, Ga., using standard commercial peanut practices. Prior to planting, fields were flag staked to establish 8 replications per treatment per trial of two rows by 30 ft long (6 ft by 30 ft, 60 row feet total) each. On May 19, two cultivars of peanut (Arachis hypogaea L.), Georgia Green (two fields, Examples 1 and 2) and Carver (one field, Example 3) were planted using a two-row Monosem air planter. During the planting passes a tractor mounted compressed air system was used to spray the in-furrow treatment into the furrow before row closure. All other plots were not treated at planting. Single field passes were used to plant entire fields to ensure a uniform planting depth. Treatments— • Treated—Plots received an in-furrow application of prothioconazole at planting at a rate of 200 g prothioconazole/Ha. Through the season these plots received foliar fungicide maintenance using standard commercial fungicides including chlorothalonil and tebuconazole. • Untreated—Due to standard practices in peanut pesticide testing, each treated plot always included untreated peanut plots adjacent to the treated plots that serve as spacer rows. […] Untreated plots in Examples 1 and 3 received foliar maintenance applications to control foliar diseases. […] TSWV rating—Plots were examined periodically following emergence for differences in appearance. In certain instances, (August 19 data for example), TSWV incidence is determined as the number of row feet with TSWV symptoms (chlorosis and stunting) which was determined for the two treatments.
# [2] = test system: tomato spotted wilt virus (TSWV); experiment: Non-replicated GLP peanut residue trial, Tifton, Ga. (Example 4); format: in vivo; details: for Percent row feet infected with TSWV: rated August 22, 525 row ft plot
# Method: Cultivation—A non-replicated GLP (good laboratory practice) peanut residue trial was in progress at the Tifton, Ga., location using similar cultivation methods as in Examples 1-3. The planting and in-furrow treatment date was May 26. Prothioconazole treated seed were prepared two weeks prior on May 12. Plots were 525 row ft. Treatments— • Untreated—no in-furrow treatment, chlorothalonil maintenance only for foliar diseases. • Seed treatment, in-furrow, and foliar—prothioconazole seed treatment@10 g active ingredient/100 kg seed plus prothioconazole applied in-furrow@200 g active ingredient/Ha followed by prothioconazole@100 g active ingredient/Ha on July 21, August 4, and August 18. • Foliar only—prothioconazole@200 g active ingredient/Ha on July 21, August 4, and August 18. TSWV rating—For TSWV incidence determination, on August 22 the number of row feet per plot with TSWV symptoms (chlorosis and stunting) was determined for the three treatments. Statistics cannot be run on single-replication trials.
# [3] = test system: tomato spotted wilt virus (TSWV); experiment: Non-replicated GLP peanut residue trial, Molino, Fla. (Example 5); format: in vivo; details: for Percent row feet infected with TSWV: Georgia Green, rated August 23, 160 row ft plot
# Method: Cultivation—A non-replicated GLP peanut residue trial was conducted in Molino, Fla., using similar methods as in Examples 3 and 4. The cultivar used was Georgia Green. Prothioconazole treated seed were prepared on May 12. Plots were 160 row ft. in length. Treatments— • Untreated—no in-furrow treatment, chlorothalonil maintenance only for foliar diseases. • Seed treatment, in-furrow, and foliar—prothioconazole seed treatment@10 g active ingredient/100 kg seed plus prothioconazole applied in-furrow@200 g active ingredient/Ha followed by a program of three chlorothalonil applications and four applications of prothioconazole@100 g active ingredient/Ha. • Foliar only—A program of three chlorothalonil applications and four applications of prothioconazole@200 g active ingredient/Ha. TSWV rating—For TSWV incidence determination, on August 23 the number of row feet per plot with TSWV symptoms (chlorosis and stunting) was determined for the three treatments. Statistics cannot be run on single replication trials.
# [4] = test system: tomato spotted wilt virus (TSWV); experiment: Bell pepper drench trial (Example 7); format: in vivo, bell pepper (Capsicum annum L.); details: for Percent control of incidence of TSWV in bell peppers: Abbott's formula; for Percent incidence TSWV in bell peppers: drench, prothioconazole 0.0084 g ai/plant, imidacloprid 0.01 g/plant
# Method: Cultivation—A trial on bell pepper (Capsicum annum L.) was initiated in Molino, Fla. to see if drenches of prothioconazole alone and in combination with the insecticide imidacloprid could control TSWV in pepper. Bell pepper plants were transplanted on April 11 into 9.1 meter plots with three replications as in Example 6. Treatments were applied as a drench in 40 ml water per plant (7 days after transplanting) on April 18 as in Example 6.
# Treatments— • Untreated—no in-furrow treatment. • Imidacloprid—imidacloprid@0.01 g imidacloprid/plant. • Prothioconazole—prothioconazole@0.0084 g prothioconazole/plant. • Prothioconazole+Imidacloprid—prothioconazole@0.0084 g active ingredient/plant+imidacloprid@0.01 g imidacloprid/plant.
# TSWV rating—For TSWV incidence determination, the percentage of plants with TSWV symptoms (chlorosis and stunting) was determined for the four treatments at 21, 29, 38, and 47 days after treatment as in Example 6.
# Synergy formula—The Colby formula for proof of synergy was used in Example 7 as in Example 6.
# [5] = test system: tomato spotted wilt virus (TSWV); experiment: Tobacco drench / broadcast spray trial (Example 8); format: in vivo, tobacco (Nicotiana tabacum); details: prothioconazole 0.0084 g ai/plant, imidacloprid 0.01 g/plant (drench), acibenzolar-S-methyl 2.47 g ai/Ha broadcast spray
# From the text: Cultivation—A trial on tobacco (Nicotiana tabacum) was initiated in Molino, Fla., to see if drenches of prothioconazole alone and in combination with the insecticide imidacloprid could control TSWV in tobacco. Plants of cultivar C-371 Gold were transplanted on April 28 into 9.1 meter plots with three replications. All eight treatments were applied after transplanting on May 1. Foliar treatments were applied as a broadcast spray, while drenches were applied as in Example 6. Acibenzolar-S-methyl is a plant defense activator used to control TSWV in tobacco.
# Treatments— • Untreated • Imidacloprid@0.01 g imidacloprid/plant • Imidacloprid@0.015 g Imidacloprid/plant • Prothioconazole@0.0084 g active ingredient/plant • Prothioconazole@0.0084 g active ingredient/plant+Imidacloprid@0.01 g imidacloprid/plant • Prothioconazole@0.0084 g active ingredient/plant+Imidacloprid@0.015 g […] label. • Acibenzolar-S-methyl@2.47 g active ingredient/Ha as a broadcast spray as per label.
# TSWV rating—For TSWV incidence determination the percentage of plants with TSWV symptoms (chlorosis and stunting) was determined for the eight treatments as in Example 6.
smiles,measurement,setting,value
"OC(Cc1ccccc1Cl)(Cn1nc[nH]c1=S)C1(Cl)CC1 (centres unmarked) [Prothioconazole, prothioconazole]",Reduction of TSWV incidence compared to untreated,"[1]; Carver trial (Example 3), in-furrow treatment",not significant
same,TSWV Incidence (number of symptomatic feet of row per 60 foot plot),"[1]; Example 1, Georgia Green, in-furrow 200 g prothioconazole/Ha at planting with foliar maintenance (chlorothalonil, tebuconazole)",18 feet of row per 60 foot plot (2×) and 14 feet of row per 60 foot plot and 19 feet of row per 60 foot plot (2×) and 8 feet of row per 60 foot plot and 12 feet of row per 60 foot plot and 20 feet of row per 60 foot plot
same,TSWV Incidence (number of symptomatic feet of row per 60 foot plot),"[1]; Example 2, Georgia Green, in-furrow 200 g prothioconazole/Ha at planting with foliar maintenance, adjacent untreated had no foliar maintenance",13 feet of row per 60 foot plot and 25 feet of row per 60 foot plot (2×) and 24 feet of row per 60 foot plot and 17 feet of row per 60 foot plot and 18 feet of row per 60 foot plot and 27 feet of row per 60 foot plot and 20 feet of row per 60 foot plot
same,TSWV Incidence (number of symptomatic feet of row per 60 foot plot),"[1]; Example 3, Carver, in-furrow 200 g prothioconazole/Ha at planting with foliar maintenance",17 feet of row per 60 foot plot and 8 feet of row per 60 foot plot and 19 feet of row per 60 foot plot and 26 feet of row per 60 foot plot and 12 feet of row per 60 foot plot and 16 feet of row per 60 foot plot and 7 feet of row per 60 foot plot and 9 feet of row per 60 foot plot
same,TSWV incidence in percent of row feet with symptoms compared to untreated controls,"[1]; Georgia Green (Example 1 and 2), in-furrow treatment",significantly lower
same,Percent row feet infected with TSWV,[2]; foliar only 200 g ai/Ha x3,30.5%
same,Percent row feet infected with TSWV,[2]; seed treatment 10 g ai/100 kg seed + in-furrow 200 g ai/Ha + foliar 100 g ai/Ha x3,24.0%
same,Number of row feet infected with TSWV compared with foliar only program or untreated,"[2]; seed treatment, in-furrow, and foliar applications",numerically lower
same,Percent row feet infected with TSWV,[3]; foliar only: three chlorothalonil and four prothioconazole 200 g ai/Ha applications,16.25%
same,Percent row feet infected with TSWV,[3]; seed treatment 10 g ai/100 kg seed + in-furrow 200 g ai/Ha + three chlorothalonil and four prothioconazole 100 g ai/Ha applications,10.6%
same,Number of row feet infected with TSWV compared with foliar only program or chlorothalonil maintenance only,"[3]; seed treatment, in-furrow, and foliar prothioconazole applications (treatment 2)",numerically lower
same,Percent control of incidence of TSWV in bell peppers,[4]; 21 days after treatment,24.90%
same,Percent incidence TSWV in bell peppers,[4]; 21 days after treatment,18.1%
same,Percent control of incidence of TSWV in bell peppers,[4]; 29 days after treatment,32.20%
same,Percent incidence TSWV in bell peppers,[4]; 29 days after treatment,31.8%
same,Percent control of incidence of TSWV in bell peppers,[4]; 38 days after treatment,12.84%
same,Percent incidence TSWV in bell peppers,[4]; 38 days after treatment,44.8%
same,Percent control of incidence of TSWV in bell peppers,[4]; 47 days after treatment,6.44%
same,Percent incidence TSWV in bell peppers,[4]; 47 days after treatment,49.4%
same,Increase of TSWV level from 38 DAT to 47 DAT,"[4]; bell pepper, untreated increased by 1.4 percent",roughly 4.5%
same,Percent incidence TSWV in tobacco,[5]; 14 days after treatment,32.2%
same,Percent incidence TSWV in tobacco,[5]; 21 days after treatment,35.0%
same,Percent incidence TSWV in tobacco,[5]; 38 days after treatment,56.7%
